Earlier results in patent publication US6514490B2, “Compositions containing an antifungal and a cationic agent” (Janssen Pharmaceutica N.V., priority 1997, dated 2003).

Settings: prior art medicated shampoo, anti-dandruff treatment

CC(=O)N1CCN(c2ccc(OCC3COC(Cn4ccnc4)(c4ccc(Cl)cc4Cl)O3)cc2)CC1 (centres unmarked) [ketoconazole]
number of patients not responding to particular medicated shampoo: up to 30%

S=[Se]=S [selenium sulfide]
number of patients not responding to particular medicated shampoo: up to 40%
